What was measured:
[1] = tested on: hairless mice irradiated with UV-B; assay: Replica image analysis (image analysis area ratio), Example 1; assay type: in vivo; details: 100 μL/day after UV-B, five times a week over 12 weeks
Method: (§1) Six-week-old ICR/HR female mice prepared by mating HR/HR mice with HaM/ICR mice were used as wrinkle model animals (wrinkle-formed hairless mice). The mice were allowed to take feed and water freely and raised in an ultraviolet-free environment of a temperature of 23° C. and a humidity of 55%.
(§2) The hairless mice raised as above were divided into 7 groups each having 8 mice and were irradiated with UV-B. UV-B irradiation was performed according to a known general method described in Tsukahara et al. (Br. J. Dermatol., 2004, 151, p. 984-994) or the like. Specifically, the hairless mice raised as above were placed in cages and irradiated with UV-B using Toshiba SE lamps. Irradiation was performed at an irradiance level of 40 to 50 mJ/cm^2, which corresponds to 0.8 to 1 MED (minimal erythema dose) for general 6-week-old hairless mice, over 12 weeks five times a week.
(§3) Samples to be applied to the hairless mice were prepared as 1% Exemplified Compound (1)/90% ethanol (EtOH) solution, 3% Exemplified Compound (1)/90% EtOH solution, 1% Exemplified Compound (2)/90% EtOH solution, 1% Exemplified Compound (3)/90% EtOH solution, 0.1% Exemplified Compound (4)/90% EtOH solution, and 1% Exemplified Compound (5)/90% EtOH solution.
(§4) Immediately after the ultraviolet ray irradiation, 90% EtOH (control) and the samples prepared as above were applied to the hairless mice of the respective groups over 12 weeks with five times a week at a dose of 100 μL/day. The groups of the hairless mice applied with the samples include “90% EtOH control group” consisting of the mice applied with 90% EtOH, “1%-compound 1 group” consisting of the mice applied with 1% Exemplified Compound (1)/90% EtOH solution, “3%-compound 1 group” consisting of the mice applied with 3% Exemplified Compound (1)/90% EtOH solution, “1%-compound 2 group” consisting of the mice applied with 1% Exemplified Compound (2)/90% EtOH solution, “1%-compound 3 group” consisting of the mice applied with 1% Exemplified Compound (3)/90% EtOH solution, “0.1%-compound 4 group” consisting of the mice applied with 0.1% Exemplified Compound (4)/90% EtOH solution, and “1%-compound 5 group” consisting of the mice applied with 1% Exemplified Compound (5)/90% EtOH solution.
Replica collection and image analysis were performed as described below. A replica was collected from the skin of the back of each hairless mouse using a rubber-based silicon impression material (GC Corporation) by a known method described in Tsukahara K et al. (Br. J. Dermatol., 2004, 151, p. 984-994) or the like.
(§5) The collected replicas were cut out into pieces with a diameter of 1.8 cm, and the pieces were lined with the impression material to correct the pieces and subjected to an image analysis. The image analysis was performed using PIAS LA-555 (PIAS Corporation) by irradiating each piece with light from a direction of oblique 30 degrees to quantify shadows formed in an area of 10 mm×10 mm (image analysis area ratio (%)).
The image analysis area ratio of the 90% EtOH control group was defined as 100, and the image analysis area ratios (%) of the respective groups were evaluated based on the image analysis area ratios obtained by the quantification.

[2] = tested on: hairless mice irradiated with UV-B; assay: Evaluation of wrinkle-preventing effect (visual evaluation of wrinkles), Example 1; assay type: in vivo; details: 100 μL/day after UV-B, five times a week over 12 weeks
Method: as §1, §2, §3, §4
(§6) Five-grade evaluation for wrinkles was performed to classify wrinkles into grades 0 to 4 by reference to the method described in Bisselt et al. (Photochem. Photobiol., 1989, 50, p. 763-769) by a known method described in Tsukahara et al. (Br. J. Dermatol., 2004, 151, p. 984-994) or the like.
The score of the 90% EtOH control group was defined as 100, and wrinkle scores of the respective groups were evaluated based on the five-grade evaluation.

[3] = tested on: hairless mice irradiated with UV-B; assay: Comprehensive evaluation of photoaging- and wrinkle-preventing effect, Example 1; assay type: in vivo
Method: as §1, §2, §3, §4, §6, §5
(§7) Measurement of skin elasticity was performed by a known method described in Tsukahara K et al. (Br. J. Dermatol., 2004, 151, p. 984-994) using Cutometer SEM575 (C+K Corporation) to measure a displacement formed in 2 seconds in total with a 1-second suction of 100 mb, followed by a 1-second relaxation period. Measurement was performed five times for each mouse to determine Ue, which is a parameter of an instantaneous elasticity displacement. The Ue value of the 90% EtOH control group was defined as 100, and Ue values of the respective groups were determined.

[4] = tested on: hairless mice irradiated with UV-B; assay: Measurement of skin elasticity (Ue, Cutometer), Example 1; assay type: in vivo; details: 100 μL/day after UV-B, five times a week over 12 weeks
Method: as §1, §2, §3, §4, §7

[5] = David Malka et al., Journal of Hepathology, 1997; cited from earlier work
[6] = tested on: wrinkle-formed hairless mice; assay: Evaluation of wrinkle-improving effect (visual evaluation of wrinkles), Example 2; assay type: in vivo; details: 1% in 90% EtOH, five times a week over 6 weeks, after 10 weeks of UV-B; versus 90% EtOH control group
Method: Wrinkle-formed hairless mice were prepared according to the description in the sections (1) and (2)(ii) of the above Example 1 by irradiating 6-week-old ICR/HR female mice, prepared by mating HR/HR with HaM/ICR, with UV-B over 10 weeks five times a week.
The hairless mice having wrinkles formed by irradiation with UV-B were visually evaluated with reference to the method described in Bisselt et al. (Photochem. Photobiol., 1989, 50, p. 763-769) by a known method described in Tsukahara et al. (Br. J. Dermatol., 2004, 151, p. 984-994) to divide the mice into two groups each having eight mice so that the average values of wrinkle scores (evaluated according to the description in the section 2)[…])) of the respective groups were almost the same.
A sample to be applied to the wrinkle-formed hairless mice was prepared as 1% compound (1)/90% EtOH solution.
The 90% EtOH (control) and the sample prepared as above were applied to the wrinkle-formed hairless mice of the respective groups over 6 weeks with five times a week at a dose of […]. The groups of the wrinkle-formed hairless mice applied with the samples include “90% EtOH control group” consisting of the mice applied with 90% EtOH, and “1%-compound 1 group” consisting of the mice applied with 1% Exemplified Compound (1)/90% EtOH solution. […]

| Structure (SMILES) | wrinkle formation inhibiting effect (replica image analysis) ([1]; 1% in 90% EtOH) | wrinkle formation inhibiting effect (wrinkle score, visual evaluation) ([2]; 1% in 90% EtOH) | photoaging-preventing and wrinkle-preventing effects (comprehensive evaluation) ([3]; 1% in 90% EtOH) | effect of inhibiting the decrease in skin elasticity (Ue) ([4]; 1% in 90% EtOH) | further results |
| --- | --- | --- | --- | --- | --- |
| CCCCCCCCCCCCOCCN(C)C [compound 4, (2-dodecyloxy-ethyl)-dimethylamine] | – | – | – | – | wrinkle formation inhibiting effect (replica image analysis) ([1]; 0.1% in 90% EtOH): decrease in this order; wrinkle formation inhibiting effect (wrinkle score, visual evaluation) ([2]; 0.1% in 90% EtOH): decrease in this order; photoaging-preventing and wrinkle-preventing effects (comprehensive evaluation) ([3]; 0.1% in 90% EtOH): high; effect of inhibiting the decrease in skin elasticity (Ue) ([4]; 0.1% in 90% EtOH): decrease in this order |
| CCN(CCCc1ccccc1)CCCc1ccccc1 [alverine] | – | – | – | – | toxicity [5]: high toxicity |
| CCCCCCCCCCCC(=O)OCCN(C)C [compound 1, 2-dimethylamino-ethyl dodecanoate] | decrease in this order | decrease in this order | high | decrease in this order | wrinkle formation inhibiting effect (replica image analysis) ([1]; 3% in 90% EtOH): decrease in this order; wrinkle formation inhibiting effect (wrinkle score, visual evaluation) ([2]; 3% in 90% EtOH): decrease in this order; photoaging-preventing and wrinkle-preventing effects (comprehensive evaluation) ([3]; 3% in 90% EtOH): high; effect of inhibiting the decrease in skin elasticity (Ue) ([4]; 3% in 90% EtOH): decrease in this order; wrinkle score (wrinkle-improving effect, visual evaluation) [6]: lower than that of the 90% EtOH control group |
| CCCCCCCCCCCCOC(=O)CN(C)C [compound 3, Dodecyl dimethylamino acetate] | decrease in this order | decrease in this order | high | decrease in this order | – |
| CCCCCCCCCCCCNC(=O)CN(C)C [compound 2, 2-Dimethylamino-N-dodecyl-acetamide] | decrease in this order | decrease in this order | high | decrease in this order | – |
| CCCCCCCCCCCC(=O)NCCN(C)C [compound 5, (2-dimethylaminoethyl)-amide dodecanoate] | maximum effect of inhibiting wrinkle formation | maximum effect of inhibiting wrinkle formation | high | maximum effect of inhibiting the decrease in skin elasticity | – |
